As usually defined, the IC50 is the concentration at which inhibition is half-maximal.

IC50 data for 51 compounds are collected here from patent publication US20210347780A1, “CDPK1 INHIBITORS, COMPOSITIONS, AND METHODS RELATED THERETO” (Vyera Pharmaceuticals, LLC, priority 2018, published 2021).

The target of one assay is T1, T. gondii CDPK1 (tgCDPK1) (Toxoplasma gondii, UniProt Q9BJF5).
T1 sequence (Q9BJF5 1-507): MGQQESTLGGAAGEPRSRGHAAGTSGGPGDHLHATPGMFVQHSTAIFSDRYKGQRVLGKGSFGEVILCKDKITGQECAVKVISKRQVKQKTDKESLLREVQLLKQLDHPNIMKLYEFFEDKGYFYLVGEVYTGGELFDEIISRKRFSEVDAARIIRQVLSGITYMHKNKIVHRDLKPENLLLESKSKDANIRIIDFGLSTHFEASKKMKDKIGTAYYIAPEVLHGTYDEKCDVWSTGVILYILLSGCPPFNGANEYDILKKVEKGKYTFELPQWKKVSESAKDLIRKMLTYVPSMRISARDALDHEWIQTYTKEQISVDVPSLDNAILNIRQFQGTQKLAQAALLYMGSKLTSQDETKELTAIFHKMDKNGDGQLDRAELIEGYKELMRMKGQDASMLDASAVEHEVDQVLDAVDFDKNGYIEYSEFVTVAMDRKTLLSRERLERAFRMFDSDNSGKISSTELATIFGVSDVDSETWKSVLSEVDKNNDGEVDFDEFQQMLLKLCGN
Description: biochemical. To be noted: inhibition of T. gondii CDPK1; at least three independent replicates; read-out: tgCDPK1 IC50. As to the method:
Certain of the compounds prepared as described above were assayed to determine their IC50 for inhibition of T. gondii CDPK1 (tgCDPK1). At least three independent replicates of the assay were conducted for each compound tested.
For `Nc1ncnc2c1c(Oc1cc(C(F)(F)F)ccn1)nn2CC(F)(F)F` [Compound 280], the IC50 was 38.6 nM.

`Nc1ncnc2c1c(Oc1cc(C(F)(F)F)ccn1)nn2C1CNCC(F)(F)C1` (stereo not drawn) [Compound 190]: the IC50 was ~54 nM.

Regarding `N#Cc1cccc(Oc2nn([C@H]3C[C@H](F)C3)c3ncnc(N)c23)c1` [Compound 173], the IC50 turned out to be 49.8 nM. On to `Nc1ncnc2c1c(Oc1cc(C(F)(F)F)ccn1)nn2CC1CC(B(O)O)C1` (stereo not drawn) [Compound 270], for which the IC50 was determined as 28.7 nM. For the compound `Nc1ncnc2c1c(Oc1cc(O)ccn1)nn2C1CCC(F)(F)CC1` [Compound 187, 2-((4-amino-1-(4,4-difluorocyclohexyl)-1H-pyrazolo[3,4-d]pyrimidin-3-yl)oxy)pyridin-4-ol], the IC50 was 10 nM. As to `Nc1ncnc2c1c(Oc1cc(C(F)(F)F)ccn1)nn2C1CCC(F)(F)CC1` [Compound 185], the IC50 came to 38.4 nM. As for `C=CC(O)Cn1nc(Oc2cc(C(F)(F)F)ccn2)c2c(N)ncnc21` (stereo not drawn) [Compound 268], the IC50 is 11.7 nM. Regarding `N#Cc1ccnc(Oc2nn([C@H]3CC[C@@H](C(F)(F)F)CC3)c3ncnc(N)c23)c1` [Compound 207], the IC50 turned out to be 23.7 nM. Take `Nc1ncnc2c1c(Oc1cc(Cl)ccn1)nn2C1CCC(F)(F)CC1` [Compound 261]: the IC50 was 35.3 nM. Take `CC(C)(C)n1nc(Oc2cc(Cl)ccn2)c2c(N)ncnc21` [Compound 262]: the 50% inhibitory concentration (IC50) was found to be 12 nM. On the same count and under the same terms, the same measure for `Nc1ncnc2c1c(Oc1cc(C(F)(F)F)ccn1)nn2C1(C(F)(F)F)CCC1` [Compound 272]: 20.7 nM; for `Nc1ncnc2c1c(Oc1cc(C(F)(F)F)ccn1)nn2C1CCOC1` (stereo not drawn) [Compound 193]: 47.7 nM; for `Nc1ncnc2c1c(Oc1cc(C(F)(F)F)ccn1)nn2[C@H]1CCCC[C@H]1O` (racemic) [191 cis (rac)]: 44 nM.

As for `Nc1ncnc2c1c(Oc1cc(O)ccn1)nn2[C@@H]1CCCC[C@@H]1O` (single isomer, unassigned) [Compound 284], the IC50 worked out at 39.2 nM.

Consider `Nc1ncnc2c1c(Oc1cc(Cl)ccn1)nn2CC1CC1` [Compound 225], for which the IC50 stood at 9 nM. On the same count and under the same terms, the figure for `Nc1ncnc2c1c(Oc1cc(C(F)(F)F)ccn1)nn2CC1CC(O)C1` (stereo not drawn) [Compound 273] is 35.8 nM.

On to `N#Cc1ccnc(Oc2nn(CC3CC3)c3ncnc(N)c23)c1` [Compound 221], for which the IC50 was 24.1 nM. On the same count and under the same terms, the figure for `Nc1ncnc2c1c(Oc1cccc(C(F)(F)F)c1)nn2[C@H]1C[C@H](F)C1` [Compound 166] is 28.9 nM; for `Nc1ncnc2c1c(Oc1cccc(Cl)c1)nn2[C@H]1C[C@@H](O)C1` [Compound 152] it is 27.3 nM; for `Nc1ncnc2c1c(Oc1cc(C(F)(F)F)ccn1)nn2C1CC(F)(F)CCC1O` (stereo not drawn) [Compound 274] it is 35 nM. Same read-out and setting: the figure for `COC1CCCCC1n1nc(Oc2cc(C(F)(F)F)ccn2)c2c(N)ncnc21` (stereo not drawn) [Compound 236] is 85.6 nM.

Take `Nc1ncnc2c1c(Oc1cc(C(F)(F)F)ccn1)nn2C1CCNCC1` [Compound 194]: the IC50 turned out to be 67.8 nM.

Take `Nc1ncnc2c1c(Cc1cccc(Cl)c1)nn2[C@H]1C[C@@H](O)C1` [Compound 130, (cis)-3-(4-amino-3-(3-chlorobenzyl)-1H-pyrazolo[3,4-d]pyrimidin-1-yl)cyclobutan-1-ol]: the IC50 is 15.1 nM. Regarding `COC(=O)C1CCC(n2nc(Oc3cc(C(F)(F)F)ccn3)c3c(N)ncnc32)CC1` (stereo not drawn) [Compound 228], the 50% inhibitory concentration (IC50) stood at 25.4 nM.

Turning to `COc1ccnc(Oc2nn([C@@H]3CCCC[C@H]3O)c3ncnc(N)c23)c1` [Compound 281], the IC50 was 26.2 nM. As to `COc1ccnc(Oc2nn([C@H]3C[C@H](F)C3)c3ncnc(N)c23)c1` [Compound 175], the concentration for half-maximal inhibition (IC50) is 17.4 nM. Still for that read-out and setting: the figure for `COc1ccnc(Oc2nn(C3CCC3)c3ncnc(N)c23)c1` [Compound 112, 1-cyclobuty1-3-((4-methoxypyridin-2-yl)oxy)-1H-pyrazolo[3,4-d]pyrimidin-4-amine] is 14.6 nM; for `Nc1ncnc2c1c(Oc1cc(C(F)(F)F)ccn1)nn2[C@H]1CC[C@@H](CO)CC1` [Compound 242] it is 15.1 nM. Still for that read-out and setting: the same measure for `Nc1ncnc2c1c(Oc1cc(C(F)(F)F)ccn1)nn2[C@H]1COC[C@@H](N)C1` [Compound 249]: 55 nM; for `Nc1ncnc2c1c(Oc1cc(C3CC3)ccn1)nn2C1CC1` [Compound 165]: 28.9 nM; for `Nc1ncnc2c1c(Oc1cc(Cl)ccn1)nn2[C@H]1C[C@H](O)C1` [Compound 116]: 15.4 nM. On the same count and under the same terms, the same measure for `NC(=O)c1ccnc(Oc2nn(C3CCCCC3)c3ncnc(N)c23)c1` [Compound 205]: 26.8 nM; for `Nc1ncnc2c1c(Oc1cccc(Cl)c1)nn2Cc1cc[nH]c1` [Compound 247]: 19.4 nM. Consider `Nc1ncnc2c1c(Oc1cc(O)ccn1)nn2[C@H]1CCCC[C@@H]1O` [Compound 278], for which the IC50 was 18.9 nM. Still for that read-out and setting: the same measure for `Nc1ncnc2c1c(Oc1cc(C(F)(F)F)ccn1)nn2[C@H]1COC[C@H](N)C1` [Compound 248]: 60.7 nM. Turning to `CC(C)(C)OC(=O)N[C@H]1CC[C@@H](n2nc(Oc3cc(C(F)(F)F)ccn3)c3c(N)ncnc32)C1` [Compound 240], the IC50 stood at 12.1 nM. Same read-out and setting: the figure for `Nc1ncnc2c1c(Oc1cc(C(F)(F)F)ccn1)nn2[C@H]1CC[C@@H](O)CC1` [Compound 231] is 18.6 nM; for `Nc1ncnc2c1c(Oc1cc(OC(F)(F)F)ccn1)nn2C1CC1` [Compound 169] it is 37.7 nM. Same read-out and setting: the same measure for `Nc1ncnc2c1c(Oc1cc(C(F)(F)F)ccn1)nn2[C@@H]1CC[C@H](N)C1` [Compound 251]: 42.1 nM. Still for that read-out and setting: the same measure for `CC(C)(C)OC(=O)N1CCC(Cn2nc(Oc3cc(Cl)ccn3)c3c(N)ncnc32)C(F)(F)C1` (stereo not drawn) [Compound 212]: 31.2 nM; for `Nc1ncnc2c1c(Oc1cc(C(F)(F)F)ccn1)nn2[C@@H]1CCCC[C@H]1O` (racemic) [191 trans (rac)]: 25 nM. For the compound `Nc1ncnc2c1c(Oc1cc(C(F)(F)F)ccn1)nn2C1CCNCC1(F)F` (stereo not drawn) [Compound 271], the IC50 was found to be 19.8 nM. For `Nc1ncnc2c1c(Oc1cc(O)ccn1)nn2[C@@H]1CCCC[C@H]1O` (single isomer, unassigned) [Compound 283], the IC50 was determined as 147 nM.

On to `Nc1ncnc2c1c(Oc1cc(C(F)(F)F)ccn1)nn2C1CCCCC1(F)F` (stereo not drawn) [Compound 279], for which the IC50 was found to be 35.7 nM. On the same count and under the same terms, the figure for `CC(C)(C)OC(=O)N1CCC(n2nc(Oc3cc(C(F)(F)F)ccn3)c3c(N)ncnc32)C1` (stereo not drawn) [Compound 199] is 38.9 nM; for `N#Cc1ccnc(Oc2nn(C3CCC(F)(F)CC3)c3ncnc(N)c23)c1` [Compound 203] it is 84.8 nM; for `Nc1ncnc2c1c(Cc1c[nH]c3ccc(F)cc13)nn2[C@H]1C[C@H](F)C1` [Compound 157] it is 11 nM. The same measure, in the same setting: the same measure for `Nc1ncnc2c1c(Cc1cccc(C(F)(F)F)c1)nn2[C@H]1C[C@H](O)C1` [Compound 125]: 36 nM. Still for that read-out and setting: the same measure for `CCOC(=O)C1(n2nc(Oc3cc(C(F)(F)F)ccn3)c3c(N)ncnc32)CCC1` [Compound 287]: 728 nM; for `COc1ccnc(Oc2nn(C3CCOCC3)c3ncnc(N)c23)c1` [Compound 220]: 54.4 nM.

Staying with this assay, now noted: tgCDPK1 IC50, inhibition of T. gondii CDPK1; at least three independent replicates.
For the compound `Nc1ncnc2c1c(Oc1cccc(Cl)c1)nn2[C@H]1C[C@H](F)C1` [Compound 171], the IC50 came to 41.1 nM.
